Experimental data published in PubChem BioAssay AID248 (DTP/NCI, 2004).
Where “and” joins values, the source holds several entries; their conditions need not be identical. Equal entries are not always repeated. Inconclusive results and toxic doses are left out. Cut-off read from the data, not from the text of the source: active = T/C of 150% or more; inactive = T/C below 125%.

Test system: L1210 leukemia ip in BDF1 mice, survival T/C
Experiment: NCI In Vivo Anticancer Drug Screen. Data for tumor model L1210 Leukemia (intraperitoneal) in B6D2F1 (BDF1) mice
Settings: endpoint: mean survival time, higher = longer survival
Procedure, shortened: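 Ratio derived from survival: compound-dosed mice over vehicle-dosed mice, all bearing a transplantable tumor.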

[1] = dose: 100.0 mg/kg/injection, schedule: Q01DX009 (ip), vehicle: saline
[2] = dose: 200.0 mg/kg/injection, schedule: Q01DX009 (ip), vehicle: saline
[3] = dose: 100.0 mg/kg/injection, schedule: Q04DX003 (ip), vehicle: saline with Tween-80
[4] = dose: 200.0 mg/kg/injection, schedule: Q04DX003 (ip), vehicle: saline with Tween-80
[5] = dose: 100.0 mg/kg/injection, schedule: Q04DX002 (ip), vehicle: Klucel (hydroxypropylcellulose) (HPC)
[6] = dose: 200.0 mg/kg/injection, schedule: Q04DX002 (ip), vehicle: Klucel (hydroxypropylcellulose) (HPC)
[7] = dose: 100.0 mg/kg/injection, schedule: Q01DX001 (ip), vehicle: saline
[8] = dose: 200.0 mg/kg/injection, schedule: Q01DX001 (ip), vehicle: saline
[9] = dose: 400.0 mg/kg/injection, schedule: Q01DX001 (ip), vehicle: saline
[10] = dose: 100.0 mg/kg/injection, schedule: Q01DX009 (ip), vehicle: Klucel (hydroxypropylcellulose) (HPC)
[11] = dose: 200.0 mg/kg/injection, schedule: Q01DX009 (ip), vehicle: Klucel (hydroxypropylcellulose) (HPC)
[12] = dose: 400.0 mg/kg/injection, schedule: Q01DX009 (ip), vehicle: Klucel (hydroxypropylcellulose) (HPC)
[13] = dose: 100.0 mg/kg/injection, schedule: Q01DX001 (ip), vehicle: carboxymethylcellulose (CMC)
[14] = dose: 200.0 mg/kg/injection, schedule: Q01DX001 (ip), vehicle: carboxymethylcellulose (CMC)
[15] = dose: 400.0 mg/kg/injection, schedule: Q01DX001 (ip), vehicle: carboxymethylcellulose (CMC)
[16] = dose: 100.0 mg/kg/injection, schedule: Q04DX003 (ip), vehicle: Klucel (hydroxypropylcellulose) (HPC)
[17] = dose: 200.0 mg/kg/injection, schedule: Q04DX003 (ip), vehicle: Klucel (hydroxypropylcellulose) (HPC)
[18] = dose: 400.0 mg/kg/injection, schedule: Q04DX003 (ip), vehicle: Klucel (hydroxypropylcellulose) (HPC)

Measured: T/C

CC(=O)CCC(=O)O
inactive: dose: 1.56 mg/kg/injection, schedule: Q01DX Z (ip), vehicle: other 98 % of control | dose: 3.13 mg/kg/injection, schedule: Q01DX Z (ip), vehicle: other 96 % of control | dose: 6.25 mg/kg/injection, schedule: Q01DX Z (ip), vehicle: other 96 % of control | dose: 12.5 mg/kg/injection, schedule: Q01DX Z (ip), vehicle: other 95 % of control | dose: 25.0 mg/kg/injection, schedule: Q01DX Z (ip), vehicle: other 95 % of control | dose: 50.0 mg/kg/injection, schedule: Q01DX Z (ip), vehicle: other 98 % of control | dose: 100.0 mg/kg/injection, schedule: Q01DX Z (ip), vehicle: other 113 % of control | dose: 100.0 mg/kg/injection, schedule: Q04DX002 (ip), vehicle: saline 88 % of control | dose: 200.0 mg/kg/injection, schedule: Q01DX Z (ip), vehicle: other 96 % of control | dose: 200.0 mg/kg/injection, schedule: Q04DX002 (ip), vehicle: saline 100 % of control | dose: 400.0 mg/kg/injection, schedule: Q04DX002 (ip), vehicle: saline 118 % of control

Nc1nc2ncc(CNc3nc(C(=O)NC(CCC(=O)O)C(=O)O)cs3)nc2c(=O)[nH]1 (stereo not drawn)
inactive: dose: 25.0 mg/kg/injection, schedule: Q01DX009 (ip), vehicle: alkali diluted with saline 97 % of control | dose: 50.0 mg/kg/injection, schedule: Q01DX009 (ip), vehicle: alkali diluted with saline 93 % of control | dose: 75.0 mg/kg/injection, schedule: Q01DX001 (ip), vehicle: other 101 % of control | dose: 75.0 mg/kg/injection, schedule: Q01DX009 (ip), vehicle: alkali diluted with saline 103 % of control | dose: 100.0 mg/kg/injection, schedule: Q01DX009 (ip), vehicle: alkali diluted with saline 92 % of control | dose: 150.0 mg/kg/injection, schedule: Q01DX001 (ip), vehicle: other 103 % of control

CC(=O)OCc1ccc(-n2c(C(F)(F)F)nc3nc(Cl)c(Cl)nc32)o1
inactive: dose: 50.0 mg/kg/injection, schedule: Q01DX009 (ip), vehicle: saline 97 % of control | [1] 102 % of control | dose: 100.0 mg/kg/injection, schedule: Q04DX003 (ip), vehicle: saline 105 % of control | [2] 96 % of control | dose: 200.0 mg/kg/injection, schedule: Q04DX003 (ip), vehicle: saline 100 % of control | dose: 400.0 mg/kg/injection, schedule: Q01DX009 (ip), vehicle: saline 97 % of control | dose: 400.0 mg/kg/injection, schedule: Q04DX003 (ip), vehicle: saline 88 % of control

CCOC(=O)c1nc2cc(C)c(C)cc2[nH]c1=O
inactive: [3] 92 % of control | [4] 99 % of control | dose: 400.0 mg/kg/injection, schedule: Q04DX003 (ip), vehicle: saline with Tween-80 93 % of control

CCOP(=O)(NC=S)OCC
inactive: dose: 75.0 mg/kg/injection, schedule: Q01DX001 (ip), vehicle: saline 96 % of control

COc1cc2c(cc1O)-c1cc3ccc(OC)c(OC)c3c[n+]1CC2
inactive: [5] 103 % of control

COC(=O)[C@@H]1[C@H](O)[C@H](C)[C@H](O)[C@H](C)/C=C\C=C(C)C(=O)Nc2c(C)c(OC(C)=O)c3c(c2O)C(=O)C(C)=C2OCOC(=C23)C(C)=C[C@@](C)(O)[C@H](O)[C@@H](C)[C@H]1OC(C)=O
inactive: [5] 96 % of control | [6] 101 % of control | dose: 400.0 mg/kg/injection, schedule: Q04DX002 (ip), vehicle: Klucel (hydroxypropylcellulose) (HPC) 101 % of control

Cc1ccc(N2C(N)=NC(N)=NC2(C)C)cc1
inactive: dose: 12.5 mg/kg/injection, schedule: Q01DX001 (ip), vehicle: saline 100 % of control | dose: 25.0 mg/kg/injection, schedule: Q01DX001 (ip), vehicle: saline 100 % of control

Clc1ccccc1-c1nc2ccccc2cc1Cl
inactive: [7] 92 % of control | [8] 88 % of control | [9] 94 % of control

Nc1nc(N)c(-c2ccc(Cl)c(Cl)c2)c(/C=C/C=C/c2cccnc2)n1
inactive: dose: 16.7 mg/kg/injection, schedule: Q01DX009 (ip), vehicle: saline with Tween-80 112 % of control | dose: 37.5 mg/kg/injection, schedule: Q01DX009 (ip), vehicle: saline with Tween-80 86 % of control

S=C(Nc1ccccc1)Nc1cccc2ccccc12
inactive: dose: 50.0 mg/kg/injection, schedule: Q01DX001 (ip), vehicle: saline 97 % of control | [7] 103 % of control | [10] 105 % of control | [5] 87 % of control | [8] 97 % of control | [11] 105 % of control | [6] 87 % of control | [9] 94 % of control | [12] 112 % of control

NC(=S)N/N=C/c1cc(Cl)cc(Cl)c1
inactive: dose: 100.0 mg/kg/injection, schedule: Q01DX001 (ip), vehicle: other 96 % of control | dose: 200.0 mg/kg/injection, schedule: Q01DX001 (ip), vehicle: other 102 % of control | dose: 400.0 mg/kg/injection, schedule: Q01DX001 (ip), vehicle: other 106 % of control

COc1ccc(Br)cc1CCC=O
inactive: [13] 100 % of control | [14] 100 % of control | [15] 100 % of control

C=CCOc1ccc(C=O)cc1OCC=C
inactive: [16] 101 % of control | [17] 96 % of control | [18] 101 % of control

CC(N(N=O)c1ccccc1)S(=O)(=O)O (stereo not drawn)
inactive: [7] 104 % of control | [1] 92 % of control | [8] 96 % of control | [2] 99 % of control | [9] 98 % of control

Cc1ccc(OC(=O)/C=C/C(=O)Oc2ccc(C)cc2)cc1
inactive: [10] 97 % of control | [16] 105 % of control | [11] 95 % of control | [17] 98 % of control | [12] 88 % of control | [18] 108 % of control

CCOc1ccc(Cl)cc1C1N(Cc2ccc(OC)cc2)CCCN1Cc1ccc(OC)cc1
inactive: [13] 98 % of control | [14] 98 % of control | [15] 102 % of control

CCOc1ccccc1NC(=O)COc1ccc(Cl)cc1
inactive: [10] 98 % of control | [16] 90 % of control | [11] 103 % of control | [17] 101 % of control | [12] 97 % of control | [18] 108 % of control

C(=P(c1ccccc1)(c1ccccc1)c1ccccc1)[P+](c1ccccc1)(c1ccccc1)c1ccccc1.[Cl][Fe]([Cl])([Cl])[Br]
inactive: dose: 0.39 mg/kg/injection, schedule: Q01DX009 (ip), vehicle: Klucel (hydroxypropylcellulose) (HPC) 119 % of control | dose: 0.78 mg/kg/injection, schedule: Q01DX009 (ip), vehicle: Klucel (hydroxypropylcellulose) (HPC) 112 % of control | dose: 1.56 mg/kg/injection, schedule: Q01DX009 (ip), vehicle: Klucel (hydroxypropylcellulose) (HPC) 97 % of control and 102 % of control

Cc1cc2[nH]c(=O)[nH]c2cc1C
inactive: [3] 98 % of control | [4] 88 % of control

Cc1nc(C)c(I)s1
inactive: [10] 93 % of control | [16] 98 % of control | [11] 97 % of control | [17] 93 % of control | [12] 94 % of control | [18] 104 % of control
